Counter-ions that a name gives are not always drawn. Like-named read-outs stand apart in the source and are kept apart here.

By EC50 is commonly meant the concentration at which the effect is half-maximal.

In assay [1] the test system is S-neurons in the myenteric ganglia of guinea pig distal colon. The assay is described as follows: intracellular recording of evoked fast excitatory postsynaptic potentials (fEPSPs). The following applies: naloxone 10 μmol/L; yohimbine 1 μmol/L. On the procedure:
Intracellular Recording: To study fast excitatory postsynaptic potentials, longitudinal muscle-myenteric plexus preparations of guinea pig colon were pinned and stretched in a 2.5 mL Sylgard-lined recording chamber. […] Myenteric ganglia were visualized at ×200 using Hoffman modulation contrast optics on an inverted microscope (Nikon Diaphot, […]., USA). Individual neurons were randomly impaled using glass microelectrodes, which were filled to the shoulder with 1.0 mol L^-1 KCl and topped off with 2.0 mol L^-1 KCl, generating a range of 50-150 MΩ input resistance. Membrane potential was measured with an Axoclamp-2A amplifier (Axon Instruments, Union City, Calif., USA) and the electrical signals were acquired and analyzed using PowerLab Chart version 5.01 (ADlnstruments, Castle Hills, Australia). Input resistance and resting membrane potential were determined for neurons before and after exposure to G. buchananii extract. Using monopolar extracellular electrodes made from Teflon®-insulated platinum wire, synaptic input to myenteric neurons was elicited by direct single pulse stimuli (0.5 ms duration) applied to interganglionic fiber tracts. […] The amplitude was measured by taking the difference in voltage between the peak of each fEPSP and the membrane holding potential. […]

For assay [2] the following is noted: cited from earlier work.
A short description of assay [3]: oxygen radical absorbance capacity (ORAC) assay. The following applies: isolated and reference compounds. The class given is biochemical. The method, then:
ORAC assay was carried out according to the method of Ou, G. and colleagues (1993) with some modifications. Trolox and FL were used as a standard and a fluorescent probe respectively. Free radicals were produced by AAPH to oxidize FL. Different dilutions of Trolox ([…]) and appropriate dilutions of tested sample were prepared with phosphate buffer (10 mM, pH 7.4). Trolox dilution ([…]) or sample solution were pipetted into a well of 96-well black microplate (VWR) and then FL (150 mL, 10 nM) was added. The reaction mixture was incubated at 37° C. for 30 min Afterward s, fluorescence was measured every 90 sec at the excitation of 485 nm and the emission of 520 nm using FLUOstar OPTIMA. After 3 cycles, AAPH ([…], 240 mM) was added quickly, and then the measurement was resumed and continued up to 90 min (60 cycles in total). The background signal was determined using the first 3 cycles. The ORAC values were calculated according to the method of Ou, G. and colleagues (1993) and expressed as Trolox equivalent (mmol TE/mmol). After freeze-drying in triplicate, MPLC fractions M1-M8 were analyzed in natural concentrations.

Assay [4] is described as follows: hydrogen peroxide scavenging assay. The class given is biochemical. As to conditions: isolated and reference compounds; read-out: H2O2 assay EC50. On the procedure:
Hydrogen peroxide scavenging assay was performed in accordance with the method of Ichikawa, M. and colleagues (2002). Sample solutions at appropriate concentration were prepared using phosphate buffer (100 mM, pH 6.0). Sample solution ([…]), phosphate buffer (30 mL, 100 mM, pH 6.0), and hydrogen peroxide solution (10 mL, 500 mM) were mixed in 96-well clear microplate (VWR, Ismaning, Germany). Then peroxidase (40 mL, 150 U/mL) and ABTS (40 mL, 0.1%) were added. The microplate was incubated at 37° C. for 15 min. The absorbance (A) of each well was measured at 414 nm with FLUOstar OPTIMA (BMG LABTECH, Offenburg, Germany). […] After freeze-drying three times 1 MPLC fractions M1-M8 were analyzed in natural concentrations.
E=[(A−Ablank)control−(A−Ablank)test]/(A−Ablank)control·100

For another assay, the system named is guinea pig distal colon. The assay is described as follows: fecal pellet propulsion motility assay in isolated distal colon (GIMM). The following applies: MPLC fractions and their main compounds, serosal application in Krebs. On the procedure:
Gastrointestinal Motility Assays: Segments (˜10 cm long) of distal colon were pinned on either end in a Sylgard-lined 50 mL organ bath, continuously perfused with oxygenated Krebs solution (rate: 10 mL min^−1) and maintained at temperatures between 36 and 37° C. Tissues were initially allowed to equilibrate for 30 mins in re-circulating Krebs solution. Colonic motility was studied using the Gastronintestinal Motility Monitoring system (GIMM; Med-Associates Inc., Saint Albans, Vt., USA), which included a digital video camera (Catamount Research and Development Inc, St Albans, Vt., USA) to film fecal pellet propulsion. Trials were separated by 5-min recovery periods between successive pellet runs. The GIMM system software calculated velocities by tracking pellets as they traversed colon segments. After initial equilibration, five pellet propulsion trials in vehicle solution were obtained to determine the basal velocity for each tissue preparation. To reduce variations between runs and experiments, the values obtained were used to generate a normalized basal velocity by dividing the values of the 4th-5th runs by the value of the 1st-2nd runs. Garcinia buchananii stem bark extract and test compounds dissolved in 100 mL of Krebs solution were superfused either into the organ bath or into the lumen of the colon using polyethylene tubing [PE 205; outside diameter 9.5 mm (BD-Worldwide, Sparks, Md., USA)]. The effects of extract and test compounds were evaluated by obtaining velocities of four trials taken at 5-min intervals (5-20 min) Normalized velocity data for these treatments were obtained by dividing the test velocities acquired by the average velocity of the five pellet propulsion runs performed in vehicle solution (runs 1-5, above). Normalized data became ratios without units, and were presented as a percent velocity of basal activity for each tissue. Velocities of pellet propulsion were also studied during washout of tissue with Krebs solution (after extract or test compound application) for 20 min
A segment (˜10-12 cm long) of distal colon was pinned on either end in a Sylgard-lined 50 mL organ bath being continuously perfused with oxygenated Krebs solution (rate: 10 mL min^−1) and maintained at temperatures between 36-37° C. Nail-polish-coated guinea-pig pellets similar in shape and size to the “native” colonic fecal pellets were used to determine propulsive velocities using the Gastrointestinal Motility Monitoring system (Med-Associates Inc., Saint Albans, Vt., USA) for filming pellet propulsion as described by Hoffman and others (2010). Velocity was calculated based on the time required for pellets to traverse 5-6 cm of the central colon segment ending 1 cm from the aboral end. Data collection started after 30 minutes of equilibration. A five-minute interval was used to allow equilibration of motor activity between successive pellet runs. Baseline velocities were measured for 20 minutes.
In intraluminal studies, the aqueous extract was prepared by suspending 2 g of G. buchananii bark powder in 100 mL Krebs, whereas 1 g G. buchananii bark powder prepared in the same manner was used for bath (serosal) applications. The extract-Krebs mixture was continuously stirred for 30 minutes and filtered using analytical filter paper (Schleicher and Schuell Blue Ribbon filter paper 589/3; 0.2 μm retention). Garcinia buchananii extract and test compounds were delivered to isolated colons in Krebs solution, and evaluated for effects on pellet propulsion during 20-25 minute time intervals. Intraluminal drug deliveries (350 μL min^−1 Krebs solution) were performed using polyethylene tubing (PE 205; outside diameter 9.5 mm) inserted ˜1.5 cm into the oral end of the segments. In bath deliveries, G. buchananii extract and test compounds were superfused directly into the organ bath. Studies involving PTLC fractions were performed using the organ bath delivery method only.

The subject of assay [5] is guinea pig gallbladder smooth muscle cells (GBSM). The assay is described as follows: intracellular microelectrode recording of action potentials, gallbladder smooth muscle. The following applies: extract 0.5 g stem bark powder/100 ml; manniflavanone 41.0 mg/100 mL Krebs. On the procedure:
(§1) Calcium imaging and standard intracellular microelectrode recording were used to determine the effect of G. buchananii extract on the discharge and frequency of Ca^2+ transients, Ca^2+ flashes and Ca^2+ waves. Six fractions (M1-M5 and M7) collected using medium pressure liquid chromatography and manniflavanone, a pure compound from M3 were analyzed for the effect on the resting membrane potential and action potentials in intact GBSM preparations, and slow wave action potentials in CSMC in guinea pig and porcine colon.

Assay [6] deals with guinea pig colon circular smooth muscle cells (CSMC). The assay is described as follows: intracellular recording of slow wave action potentials, colon circular smooth muscle. The following applies: extract 0.5 g stem bark powder/100 ml Krebs; manniflavanone 41.0 mg/100 mL Krebs. On the procedure: as §1
[7] abbreviates: Values from Wolfe and Liu (stereochemistry of naringenin and taxifolin not stated).

Regarding `COC(=O)[C@@H]1[C@H]2C[C@H]3c4[nH]c5ccccc5c4CCN3C[C@@H]2CC[C@@H]1O` [yohimbine, yohimbine hydrochloride], the “effect of antagonist alone on fEPSPs” value in assay [1] was “had no effect on fEPSPs”.

Consider `O=c1c(O)c(-c2ccc(O)c(O)c2)oc2cc(O)cc(O)c12` [quercetin], for which the “ORAC, Literature” value in assay [2] (Values from Ou et al.) is listed as 7.28 μmol TE/μmol; in assay [2] (setting [7]), 8.04 μmol TE/μmol. The compound further gave an ORAC assay in assay [3] of 5.61 μmol TE/μmol. In assay [4], the EC50 turned out to be 6.1 µM.

`C=CCN1CC[C@]23c4c5ccc(O)c4O[C@H]2C(=O)CC[C@@]3(O)[C@H]1C5` [naloxone, naloxone hydrochloride]: the “effect of antagonist alone on fEPSPs” value in assay [1] was “had no effect on fEPSPs”.

`O=C1c2c(O)cc(O)cc2O[C@H](c2ccc(O)c(O)c2)[C@H]1O` [Compound 6, (+)-(2R,3R)-Taxifolin]: the ORAC assay in assay [3] is reported as 7.63 μmol TE/μmol. Further, the EC50 in assay [4] was determined as 11.3 µM.

`O=C1c2c(O)cc(O)c([C@@H]3C(=O)c4c(O)cc(O)cc4O[C@H]3c3ccc(O)cc3)c2O[C@H](c2ccc(O)c(O)c2)[C@H]1O` [Compound 4, (2R,3S,2″R,3″R)-GB-2] came in with an ORAC assay in assay [3] of 12.10 μmol TE/μmol. The EC50 in assay [4] was found to be 2.2 µM. For the same compound, the “effect on pellet propulsion velocity” value in the assay with guinea pig distal colon is on record as “inhibits guinea pig colon propulsive motility”.

On to `O=C1c2c(cc(O)c([C@@H]3OC(CO)[C@@H](O)[C@H](O)C3O)c2O)O[C@H](c2ccc(O)cc2)[C@H]1O` (stereo partly drawn) [Compound 2, (2R,3R)-Aromadendrin-6-C-β-D-glucopyranoside], for which the ORAC assay in assay [3] was 4.23 μmol TE/μmol. For the same compound, the EC50 in assay [4] came out at 10.9 µM.

For `O=C1CC(c2ccc(O)cc2)Oc2cc(O)cc(O)c21` (racemic) [(±)-naringenin], the ORAC assay in assay [3] is reported as 3.96 μmol TE/μmol. Also, in assay [4], the EC50 is 8.6 µM.

Consider `O=C1c2c(O)cc(O)c([C@@H]3C(=O)c4c(O)cc(O)cc4O[C@H]3c3ccc(O)c(O)c3)c2O[C@H](c2ccc(O)c(O)c2)[C@H]1O` [Compound 3, (2R,3S,2″R,3″R)-manniflavanone], for which the “action potentials in GBSM” value in assay [5] was “inhibits action potentials”. The “slow wave action potentials (SW) in CSMC” value in assay [6] is “inhibits spikes of SW”. In assay [3], the ORAC assay is given as 13.73 μmol TE/μmol. For the same compound, the EC50 in assay [4] turned out to be 2.8 µM.

Take `O=C1c2c(cc(O)c([C@@H]3O[C@H](CO)[C@@H](O)[C@H](O)[C@H]3O)c2O)O[C@H](c2ccc(O)c(O)c2)[C@H]1O` [Compound 1, (2R,3R)-Taxifolin-6-C-β-D-glucopyranoside]: in assay [3], the ORAC assay stood at 9.57 μmol TE/μmol. Also, in assay [4], the EC50 stood at 11 µM.

As to `O=C1C[C@@H](c2ccc(O)c(O)c2)Oc2c1c(O)cc(O)c2[C@@H]1C(=O)c2c(O)cc(O)cc2O[C@H]1c1ccc(O)c(O)c1` [Compound 5, (2R,3S,2″S)-2-(3,4-dihydroxyphenyl)-2,2′,3,3′-tetrahydro-5,5,7,7-tetrahydroxy-2′-(3,4-dihydroxyphenyl)-[3,8′-Bi-4H-1-benzopyran]-4,4′-dione], the ORAC assay in assay [3] is 10.50 μmol TE/μmol. Besides, the EC50 in assay [4] came to 14.4 µM. In addition, the “effect on pellet propulsion velocity” value with guinea pig distal colon is given as “inhibits guinea pig colon propulsive motility”.

Regarding `Oc1cc(O)c2c(c1)O[C@H](c1ccc(O)c(O)c1)[C@H](O)C2` [(−)-epicatechin], the “ORAC, Literature” value in assay [2] (setting [7]) is 9.14^6 μmol TE/μmol. Further, the ORAC assay in assay [3] came out at 9.65 μmol TE/μmol. Also, in assay [4], the EC50 amounted to 4.1 µM.

For the compound `O=C1O[C@H]([C@@H](O)CO)C(O)=C1O` [ascorbic acid], in assay [3], the ORAC assay was determined as 0.34 μmol TE/μmol. Further, in assay [4], the EC50 was determined as 18.5 µM.

Values taken from patent US20140348966A1, “GARCINIA BUCHANANII BAKER COMPOUNDS, COMPOSITIONS AND RELATED METHODS” (priority 2011, published 2014).
